# Measurements taken from patent publication US20260355325A1, “DIMER COMPOUNDS” (KESMALEA THERAPEUTICS LIMITED, priority 2023, published 2026).
# Target: T1, BRD4 (Homo sapiens, UniProt O60885)
# T1 construct: Flp-In LgBiT HEK293 cells; lytic luminescence degradation readout
# Test: BRD4 HiBiT Assay (degradation of endogenous BRD4 in HiBiT knock-in Flp-In LgBiT HEK293 cells)
# Format: cell-based
# Conditions: BRD4 degradation in cells at 6-hour timepoint
# Description: The purpose of the BRD4 HiBiT Assay was to assess the binding affinity of the dimer to BRD4 and subsequent protein degradation.
# BRD4 HiBiT cells (Flp-In™ LgBiT and KI HiBiT) were generated by first creating a Flp-In™293 stable cell line, transfecting in the pFRT serial vector containing an integrated Flp recombination target (FRT) site (Thermo Fisher Scientific, Waltham, MA) to HEK293 cells (ATCC, Manassas, VA). The LgBiT expression sequence (Promega Corporation, Madison, WA) was then introduced into the genome via Flp recombinase-mediated DNA recombination at the FRT site. HiBiT sequence (Promega Corporation, Madison, WA) was then knocked in to the endogenous BRD4 protein in the Flp-In™ LgBiT HEK293 cells and successful clones verifying by sequencing. Work on BRD4 HiBiT cell line was performed under license from Promega Corporation (Madison, WA). Cells were maintained in DMEM (Invitrogen™, Waltham, MA) supplemented with 10% FBS (AusGeneX, Molendinar, Australia) and 1% penicillin/streptomycin (Invitrogen™, Waltham, MA) in a humidified incubator at 5% CO2, 37° C.
# Compounds were dissolved in DMSO (10 mM), serially diluted from 10 mM to 1.5 nM, and pre-incubated for 2 hours. Exponentially growing cells were seeded at 1×10^4 cells per well of 384 well plate (Corning, New York #3570). Cells were treated with compound for 6 or 48 hours. Following treatment, Nano-Glo® HiBiT Lytic Detection reagent (Promega Corporation, Madison, WA) was added according to manufacturer's instructions, and signal read using BMG CLARIOstar plate reader (BMG Labtech, Ortenburg, Germany). Each data point was performed in duplicate for every experiment. A DC50 value was calculated from linear regression analysis of the plots.
row,Compound,DC50
1,"Cc1sc2c(c1C)C(c1ccc(Cl)cc1)=N[C@@H](CC(=O)NCCC[C@@]13OB(c4ccccc4CCC4CN(c5ccc(N6CCC(=O)NC6=O)cc5)C4)O[C@@H]1C[C@@H]1C[C@H]3C1(C)C)c1nnc(C)n1-2 [Example 8, 2-((S)-4-(4-chlorophenyl)-2,3,9-trimethyl-6H-thieno[3,2-f][1,2,4]triazolo[4,3-a][1,4]diazepin-6-yl)-N-(3-((3aS,4S,6S,7aR)-2-(2-(2-(1-(4-(2,4-dioxotetrahydropyrimidin-1(2H)-yl)phenyl)azetidin-3-yl)ethyl)phenyl)-5,5-dimethyltetrahydro-4,6-methanobenzo[d][1,3,2]dioxaborol-3a(4H)-yl)propyl)acetamide]",< 100 nM

# Same assay, conditions: BRD4 degradation in cells at 48-hour timepoint
row,Compound,DC50
1,"Cc1cc([C@H](C(=O)N2C[C@H](O)C[C@H]2C(=O)NCc2ccc(Cl)cc2OCCCB2O[C@H]3C[C@H]4C[C@H](C4(C)C)[C@@]3(CCNC(=O)C[C@@H]3N=C(c4ccc(Cl)cc4)c4c(sc(C)c4C)-n4c(C)nnc43)O2)C(C)C)on1 [Example 12, (2S,4R)—N-(4-chloro-2-(3-((3aR,4R,6R,7aS)-3a-(2-(2-((S)-4-(4-chlorophenyl)-2,3,9-trimethyl-6H-thieno[3,2-f][1,2,4]triazolo[4,3-a][1,4]diazepin-6-yl)acetamido)ethyl)-5,5-dimethylhexahydro-4,6-methanobenzo[d][1,3,2]dioxaborol-2-yl)propoxy)benzyl)-4-hydroxy-1-((R)-3-methyl-2-(3-methylisoxazol-5-yl)butanoyl)pyrrolidine-2-carboxamide]",1000 to 10000 nM

# Target: T2, BTK (Homo sapiens, UniProt Q06187)
# T2 construct: immunofluorescence degradation readout, 48 h
# Test: BTK IFA Assay (BTK degradation in OCI-Ly10 cells)
# Format: cell-based
# Conditions: BTK degradation in OCI-Ly10 cells at 48-hour timepoint
# Description: The purpose of the BTK Assays were to assess the binding affinity of the dimer to BTK and subsequent protein degradation.
# OCI-Ly10 cells were obtained from CoBioer Biosciences Co. Ltd, Shanghai, China, and maintained in IMDM (Invitrogen™, Waltham, MA) supplemented with 20% FBS (AusGeneX, Molendinar, Australia) and 1%, penicillin/streptomycin (Invitrogen™, Waltham, MA) in a humidified incubator at 5% CO2, 37° C.
# Compounds were dissolved in DMSO (10 mM), serially diluted from 10 mM to 1.5 nM, and pre-incubated for 2 hours. Exponentially growing cells were seeded at 8×10^3 cells per well of 384 well plate (Corning, New York #356663). Cells were treated with compound for 48 hours. Following treatment, cells were fixed with 4% PFA (SolarBio Lifescience, Beijing, China) for 20 minutes, permeabilised in 100% ice-cold methanol (Merck, Darmstadt, Germany) for 10 minutes, and blocked with blocking buffer (LI-COR Biosciences Lincoln, NE) for 90 minutes.
# Cells were incubated with primary BTK antibody (CST #8547 Danvers, MA) at 1:1000 dilution overnight in blocking buffer (LI-COR, Lincoln, NE) at 4° C. Cells were washed in DPBS (Thermo Fisher Scientific, Waltham, MA) and incubated with secondary antibody AlexaFluor 488 goat anti rabbit (Invitrogen™ #A-11008 Waltham, MA) 1:1000 dilution, with Hoechst stain (Invitrogen™ Waltham, MA) 1:5000 dilution in blocking buffer (LI-COR Biosciences, Lincoln, NE) for 90 minutes. After final DPBS wash, 200 ul of DPBS was added to the cells, and signal read on Operetta (Revvity, Waltham, MA). Each data point was performed in duplicate for every experiment. A DC50 value was calculated from linear regression analysis of the plots.
# T2 sequence (Q06187 whole entry): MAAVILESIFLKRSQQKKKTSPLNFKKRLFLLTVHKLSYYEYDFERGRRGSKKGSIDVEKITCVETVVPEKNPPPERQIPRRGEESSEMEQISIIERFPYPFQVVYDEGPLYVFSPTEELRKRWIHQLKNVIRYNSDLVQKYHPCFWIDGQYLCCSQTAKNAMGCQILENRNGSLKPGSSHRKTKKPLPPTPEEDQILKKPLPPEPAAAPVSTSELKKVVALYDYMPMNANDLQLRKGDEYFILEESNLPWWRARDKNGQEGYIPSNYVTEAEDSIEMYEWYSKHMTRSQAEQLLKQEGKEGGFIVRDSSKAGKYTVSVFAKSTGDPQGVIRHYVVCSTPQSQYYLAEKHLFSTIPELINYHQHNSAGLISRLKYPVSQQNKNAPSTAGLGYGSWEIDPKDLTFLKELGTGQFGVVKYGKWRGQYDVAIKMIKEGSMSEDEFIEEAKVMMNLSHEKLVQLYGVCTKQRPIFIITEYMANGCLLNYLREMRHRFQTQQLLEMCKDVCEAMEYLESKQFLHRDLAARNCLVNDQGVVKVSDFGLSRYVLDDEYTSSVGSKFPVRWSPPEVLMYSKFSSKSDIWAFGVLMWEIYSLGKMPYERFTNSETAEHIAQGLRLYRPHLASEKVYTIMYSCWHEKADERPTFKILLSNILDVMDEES
row,DC50,Compound
1,500 to 1000 nM,"Cc1cc(C(=O)N(C)CCCOc2ccc3c(c2)n(C)c(=O)n3C2CCC(=O)NC2=O)ccc1B1O[C@H]2C[C@H]3C[C@H](C3(C)C)[C@@]2(CCOCC(=O)N2CCC(n3nc(-c4ccc(Oc5ccccc5)cc4)c4c(N)ncnc43)CC2)O1 (mixture of isomers) [Example 16, 4-((3aR,4R,6R,7aS)-3a-(2-(2-(4-(4-amino-3-(4-phenoxyphenyl)-1H-pyrazolo[3,4-d]pyrimidin-1-yl)piperidin-1-yl)-2-oxoethoxy)ethyl)-5,5-dimethylhexahydro-4,6-methanobenzo[d][1,3,2]dioxaborol-2-yl)-N-(3-((1-(2,6-dioxopiperidin-3-yl)-3-methyl-2-oxo-2,3-dihydro-1H-benzo[d]imidazol-5-yl)oxy)propyl)-N,3-dimethylbenzamide]"
2,100 to 500 nM,"Cc1cc(C(=O)N(C)CCCOc2ccc3c(c2)n(C)c(=O)n3C2CCC(=O)NC2=O)ccc1B1O[C@H]2C[C@H]3C[C@H](C3(C)C)[C@@]2(CCOCCN2CCC(n3nc(-c4ccc(Oc5ccccc5)cc4)c4c(N)ncnc43)CC2)O1 (stereo partly drawn) [Example 14, 4-((3aR,4R,6R,7aS)-3a-(2-(2-(4-(4-amino-3-(4-phenoxyphenyl)-1H-pyrazolo[3,4-d]pyrimidin-1-yl)piperidin-1-yl)ethoxy)ethyl)-5,5-dimethylhexahydro-4,6-methanobenzo[d][1,3,2]dioxaborol-2-yl)-N-(3-((1-(2,6-dioxopiperidin-3-yl)-3-methyl-2-oxo-2,3-dihydro-1H-benzo[d]imidazol-5-yl)oxy)propyl)-N,3-dimethylbenzamide]"

# Second part, the compound before the results:
row,Compound,DC50
1,"Cc1cc(C(=O)NCCC#Cc2cccc3c2CN(C2CCC(=O)NC2=O)C3=O)ccc1B1O[C@H]2C[C@H]3C[C@H](C3(C)C)[C@@]2(CCOCCN2CCC(n3nc(-c4ccc(Oc5ccccc5)cc4)c4c(N)ncnc43)CC2)O1 (mixture of isomers) [Example 15, 4-((3aR,4R,6R,7aS)-3a-(2-(2-(4-(4-amino-3-(4-phenoxyphenyl)-1H-pyrazolo[3,4-d]pyrimidin-1-yl)piperidin-1-yl)ethoxy)ethyl)-5,5-dimethylhexahydro-4,6-methanobenzo[d][1,3,2]dioxaborol-2-yl)-N-(4-(2-(2,6-dioxopiperidin-3-yl)-1-oxoisoindolin-4-yl)but-3-yn-1-yl)-3-methylbenzamide]",100 to 500 nM
2,"Cc1cc(C(=O)NCCC#Cc2cccc3c2CN(C2CCC(=O)NC2=O)C3=O)ccc1B1O[C@H]2C[C@H]3C[C@H](C3(C)C)[C@@]2(CCOCC(=O)N2CCC(n3nc(-c4ccc(Oc5ccccc5)cc4)c4c(N)ncnc43)CC2)O1 (mixture of isomers) [Example 17, 4-((3aR,4R,6R,7aS)-3a-(2-(2-(4-(4-amino-3-(4-phenoxyphenyl)-1H-pyrazolo[3,4-d]pyrimidin-1-yl)piperidin-1-yl)-2-oxoethoxy)ethyl)-5,5-dimethylhexahydro-4,6-methanobenzo[d][1,3,2]dioxaborol-2-yl)-N-(4-(2-(2,6-dioxopiperidin-3-yl)-1-oxoisoindolin-4-yl)but-3-yn-1-yl)-3-methylbenzamide]",100 to 500 nM
3,"Cc1ccc(C(=O)N(C)CCCOc2cccc3c2CN(C2CCC(=O)NC2=O)C3=O)cc1B1O[C@H]2C[C@H]3C[C@H](C3(C)C)[C@@]2(CCOCC(=O)N2CCC(n3nc(-c4ccc(Oc5ccccc5)cc4)c4c(N)ncnc43)CC2)O1 (mixture of isomers) [Example 19, 3-((3aR,4R,6R,7aS)-3a-(2-(2-(4-(4-amino-3-(4-phenoxyphenyl)-1H-pyrazolo[3,4-d]pyrimidin-1-yl)piperidin-1-yl)-2-oxoethoxy)ethyl)-5,5-dimethylhexahydro-4,6-methanobenzo[d][1,3,2]dioxaborol-2-yl)-N-(3-((2-(2,6-dioxopiperidin-3-yl)-1-oxoisoindolin-4-yl)oxy)propyl)-N,4-dimethylbenzamide]",500 to 1000 nM
4,"Cc1cc(C(=O)N(C)CCOc2cccc3c2CN(C2CCC(=O)NC2=O)C3=O)ccc1B1O[C@H]2C[C@H]3C[C@H](C3(C)C)[C@@]2(CCOCC(=O)N2CCC(n3nc(-c4ccc(Oc5ccccc5)cc4)c4c(N)ncnc43)CC2)O1 (mixture of isomers) [Example 20, 4-((3aR,4R,6R,7aS)-3a-(2-(2-(4-(4-amino-3-(4-phenoxyphenyl)-1H-pyrazolo[3,4-d]pyrimidin-1-yl)piperidin-1-yl)-2-oxoethoxy)ethyl)-5,5-dimethylhexahydro-4,6-methanobenzo[d][1,3,2]dioxaborol-2-yl)-N-(2-((2-(2,6-dioxopiperidin-3-yl)-1-oxoisoindolin-4-yl)oxy)ethyl)-N,3-dimethylbenzamide]",1000 to 10000 nM
5,"Cc1cc(C(=O)N(C)CCCOc2cccc3c2CN(C2CCC(=O)NC2=O)C3=O)ccc1B1O[C@H]2C[C@H]3C[C@H](C3(C)C)[C@@]2(CCOCC(=O)N2CCC(n3nc(-c4ccc(Oc5ccccc5)cc4)c4c(N)ncnc43)CC2)O1 (stereo partly drawn) [Example 18, 4-((3aR,4R,6R,7aS)-3a-(2-(2-(4-(4-amino-3-(4-phenoxyphenyl)-1H-pyrazolo[3,4-d]pyrimidin-1-yl)piperidin-1-yl)-2-oxoethoxy)ethyl)-5,5-dimethylhexahydro-4,6-methanobenzo[d][1,3,2]dioxaborol-2-yl)-N-(3-((2-(2,6-dioxopiperidin-3-yl)-1-oxoisoindolin-4-yl)oxy)propyl)-N,3-dimethylbenzamide]",500 to 1000 nM
